# Measurements taken from ChEMBL document CHEMBL1130038, “1,2-Diarylpyrroles as potent and selective inhibitors of cyclooxygenase-2” (J Med Chem, 1997).
# What was measured:
# [1] = target: T1, Prostaglandin G/H synthase 1 (Homo sapiens, UniProt P23219)
# Description: In vitro inhibitory activity against human prostaglandin G/H synthase 1
# [2] = target: T2, Prostaglandin G/H synthase 2 (Homo sapiens, UniProt P35354)
# T2 sequence (P35354 whole entry): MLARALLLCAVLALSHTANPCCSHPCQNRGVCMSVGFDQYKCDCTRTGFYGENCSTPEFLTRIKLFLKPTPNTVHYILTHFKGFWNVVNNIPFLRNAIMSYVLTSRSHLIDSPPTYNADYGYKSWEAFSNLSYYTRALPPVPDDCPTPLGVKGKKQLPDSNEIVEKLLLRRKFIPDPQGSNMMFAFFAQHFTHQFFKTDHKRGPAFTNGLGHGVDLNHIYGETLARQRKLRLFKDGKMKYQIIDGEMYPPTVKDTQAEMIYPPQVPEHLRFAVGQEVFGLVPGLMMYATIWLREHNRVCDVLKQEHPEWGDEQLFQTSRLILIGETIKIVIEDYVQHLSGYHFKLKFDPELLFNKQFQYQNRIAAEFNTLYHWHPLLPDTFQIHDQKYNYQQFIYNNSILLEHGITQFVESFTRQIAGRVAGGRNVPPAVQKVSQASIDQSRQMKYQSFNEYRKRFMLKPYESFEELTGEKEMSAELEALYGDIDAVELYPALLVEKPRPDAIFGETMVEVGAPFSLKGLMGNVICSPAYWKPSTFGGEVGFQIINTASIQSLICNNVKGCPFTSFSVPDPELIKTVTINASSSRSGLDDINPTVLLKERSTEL
# [3] = target: T1, Prostaglandin G/H synthase 1; remark: listed apart in the source
# [4] = species on record: Rattus norvegicus; test: animal or person; details: po, read-out: Inhibition
# [5] = target: T2, Prostaglandin G/H synthase 2; remark: listed apart in the source
# Description: In vitro inhibitory activity against human Prostaglandin G/H synthase 2; NA indicates inactive
# [6] = target: T1, Prostaglandin G/H synthase 1; remark: listed apart in the source
# Description: In vitro inhibitory activity against human Prostaglandin G/H synthase 1; NA indicates inactive
# [7] = target: T1, Prostaglandin G/H synthase 1; type: functional, cell-based, HL-60
# Description: In vitro inhibitory activity against Prostaglandin G/H synthase 1 in retinoic acid stimulated HL-60 cells
# [8] = species on record: Homo sapiens; test: tissue or blood
# [9] = species on record: Homo sapiens; test: tissue or blood; remark: listed apart in the source
# Description: Ability to inhibit LPS-induced PGE-2 production in human whole blood
# [10] = species on record: Homo sapiens; test: tissue or blood; remark: listed apart in the source
# Description: Inhibition of LPS-induced PGE-2 production in the human whole blood.
# [11] = species on record: Homo sapiens; test: tissue or blood; remark: listed apart in the source
# Description: Inhibition of TXB2 production in the human whole blood.
# [12] = species on record: Rattus norvegicus; test: animal or person; details: po, read-out: Inhibition; remark: listed apart in the source
# T1 sequence (P23219 whole entry): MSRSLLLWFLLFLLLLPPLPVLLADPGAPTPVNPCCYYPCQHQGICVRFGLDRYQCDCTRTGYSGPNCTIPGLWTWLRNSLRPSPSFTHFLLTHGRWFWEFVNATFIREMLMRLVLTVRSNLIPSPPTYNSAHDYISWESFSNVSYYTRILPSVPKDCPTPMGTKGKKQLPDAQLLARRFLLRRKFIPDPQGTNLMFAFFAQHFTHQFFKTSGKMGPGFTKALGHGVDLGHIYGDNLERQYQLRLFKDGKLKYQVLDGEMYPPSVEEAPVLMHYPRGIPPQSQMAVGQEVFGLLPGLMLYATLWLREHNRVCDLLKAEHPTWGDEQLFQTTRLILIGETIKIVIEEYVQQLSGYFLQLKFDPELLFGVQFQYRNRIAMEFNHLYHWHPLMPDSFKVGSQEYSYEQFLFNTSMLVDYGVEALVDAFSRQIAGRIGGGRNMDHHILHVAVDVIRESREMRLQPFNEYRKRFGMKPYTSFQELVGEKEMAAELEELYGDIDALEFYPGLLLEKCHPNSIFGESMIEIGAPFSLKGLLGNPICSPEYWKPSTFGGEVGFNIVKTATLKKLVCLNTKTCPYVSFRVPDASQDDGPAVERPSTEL
compound,measurement,setting,value
CS(=O)(=O)c1cccc(-n2cccc2-c2ccc(F)cc2)c1,IC50,[1],> 100 µM
Cc1ccc(-c2ccc(S(C)(=O)=O)cc2)n1Cc1ccc(F)cc1,IC50,[1],> 100 µM
CCN(CC)OC(=O)c1ccc(-n2c(C)ccc2-c2ccc(F)cc2)cc1,IC50,[2],Active
same,IC50,[3],Active
Cc1ccc(-c2ccc(F)cc2)n1-c1ccc(S(C)(=O)=O)cc1,IC50,[1],> 100 µM
Cc1ccc(-c2ccc(S(C)(=O)=O)cc2)n1-c1ccccc1,inhibition in vivo at 10 mg/kg,[4],21%
CCCCn1c(C)ccc1-c1ccc(S(C)(=O)=O)cc1,IC50,[1],> 100 µM
same,inhibition in vivo at 10 mg/kg,[4],1%
COc1ccc(-c2ccc(C)n2-c2ccc(C(C)=O)cc2)cc1,IC50,[5],Not Active
same,IC50,[6],Not Active
Cc1ccc(-c2ccc(S(C)(=O)=O)cc2)n1-c1ccc(F)c(F)c1,inhibition in vivo at 10 mg/kg,[4],17%
CS(=O)(=O)c1ccc(-c2ccc(CCC(=O)O)n2-c2ccc(F)cc2)cc1,IC50,[1],> 100 µM
CNS(=O)(=O)c1ccc(-n2cccc2-c2ccc(F)cc2)cc1,IC50,[1],> 100 µM
Cc1c(Br)cc(-c2ccc(S(C)(=O)=O)cc2)n1-c1ccc(F)cc1,inhibition in vivo at 10 mg/kg,[4],34%
Cc1ccc(-c2ccc(F)cc2)n1-c1ccc([S+](C)[O-])cc1 (stereo not given),IC50,[5],Not Active
same,IC50,[6],Not Active
Cc1ccc(-c2ccc(S(C)(=O)=O)cc2)n1-c1ccc(C(F)(F)F)cc1,inhibition in vivo at 10 mg/kg,[4],31%
O=S(=O)(c1ccccc1)c1ccc(-n2cccc2-c2ccc(F)cc2)cc1,IC50,[1],> 100 µM
CCS(=O)(=O)c1ccc(-n2cccc2-c2ccc(F)cc2)cc1,IC50,[1],> 100 µM
Cc1c(CN(C)C)cc(-c2ccc(S(C)(=O)=O)cc2)n1-c1ccc(F)cc1,IC50,[1],> 100 µM
Cc1ccc(-c2ccc(S(C)(=O)=O)cc2)n1-c1ccc(F)cc1,IC50,[1],> 100 µM
same,inhibition in vivo at 10 mg/kg,[4],25%
CS(=O)(=O)c1ccc(-c2cccn2-c2ccc(F)cc2)cc1,IC50,[1],> 100 µM
NS(=O)(=O)c1ccc(-n2cccc2-c2ccc(F)cc2)cc1,inhibition in vivo at 10 mg/kg,[4],30%
Cc1c(C(Oc2cccc(Cl)c2)C(F)(F)F)cc(-c2ccc(S(C)(=O)=O)cc2)n1-c1ccc(F)cc1 (stereo not given),IC50,[1],> 100 µM
COc1ccc(-c2ccc(CCC(=O)O)n2-c2ccc(C(C)=O)cc2)cc1,IC50,[7],1 µM
same,IC50,[1],25 µM
same,IC50,[8],0.3 µM
same,IC50,[9],1.5 µM
Cc1c(COc2cccc(Cl)c2)cc(-c2ccc(S(C)(=O)=O)cc2)n1-c1ccc(F)cc1,IC50,[1],> 100 µM
Cc1ccc(-n2c(C)ccc2-c2ccc(S(C)(=O)=O)cc2)cc1,inhibition in vivo at 10 mg/kg,[4],25%
CN(C)S(=O)(=O)c1ccc(-n2c(CCC(=O)O)ccc2-c2ccc(F)cc2)cc1,IC50,[10],4.4 µM
same,IC50,[11],> 50 µM
Cc1ccc(-c2ccc(S(C)(=O)=O)cc2)n1C(C)C,IC50,[1],> 100 µM
Cc1ccc(-c2ccc(S(C)(=O)=O)cc2)n1C1CCCCC1,IC50,[1],> 100 µM
CS(=O)(=O)c1ccc(-n2cccc2-c2ccc(F)cc2)cc1,inhibition in vivo at 10 mg/kg,[4],42%
Cc1ccc(-c2ccc(S(C)(=O)=O)cc2)[nH]1,IC50,[1],> 100 µM
Cc1c(COc2ccc(Cl)cc2)cc(-c2ccc(S(C)(=O)=O)cc2)n1-c1ccc(F)cc1,IC50,[1],> 100 µM
CCc1ccc(-c2ccc(S(C)(=O)=O)cc2)n1-c1ccc(F)cc1,IC50,[1],> 100 µM
CC(=O)c1ccc(-n2c(C)ccc2-c2ccc(F)cc2)cc1,IC50,[5],Not Active
same,IC50,[6],Not Active
Cc1c(S(=O)(=O)C(F)(F)F)cc(-c2ccc(S(C)(=O)=O)cc2)n1-c1ccc(F)cc1,IC50,[1],> 100 µM
same,inhibition in vivo at 20 mg/kg,[12],30%
CC(=O)c1cc(-c2ccc(S(C)(=O)=O)cc2)n(-c2ccc(F)cc2)c1C,inhibition in vivo at 10 mg/kg,[4],13%
Cc1c(C(O)C(F)(F)F)cc(-c2ccc(S(C)(=O)=O)cc2)n1-c1ccc(F)cc1 (stereo not given),inhibition in vivo at 20 mg/kg,[12],15%
CS(=O)(=O)c1ccc(-n2cccc2-c2ccc(F)cc2)cc1Cl,IC50,[1],> 100 µM
CN(C)S(=O)(=O)c1ccc(-n2cccc2-c2ccc(F)cc2)cc1,IC50,[1],> 100 µM
CS(=O)(=O)c1ccc(-c2ccc(C(F)(F)F)n2-c2ccc(F)cc2)cc1,IC50,[1],> 100 µM
COC(=O)c1ccc(-n2c(C)ccc2-c2ccc(F)cc2)cc1,IC50,[5],Not Active
same,IC50,[6],Not Active
